Data as given in PubChem BioAssay AID330 (DTP/NCI, 2004).
Several values for one entry are separate records, joined by “and”; a condition that tells them apart may be missing. Equal entries are not always repeated. Toxic doses and inconclusive results are not listed. The calls were made as follows: active = survival T/C of 150% or more; inactive = T/C below 125% in these data.

Tested on: P388 leukemia ip, CD2F1 mice, survival T/C
Assay: NCI In Vivo Anticancer Drug Screen. Data for tumor model P388 Leukemia (intraperitoneal) in CD2F1 (CDF1) mice
Details: endpoint: median survival time, higher = longer survival
Outline: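 Mice carrying the transplanted tumor received test compound or vehicle. Survival was recorded in each group, and the value is the treated-group measurement divided by that of the vehicle-treated control group.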

[1] = dose: 12.5 mg/kg/injection, schedule: Q01DX005 (ip), vehicle: Klucel (hydroxypropylcellulose) (HPC)
[2] = dose: 25.0 mg/kg/injection, schedule: Q01DX005 (ip), vehicle: Klucel (hydroxypropylcellulose) (HPC)
[3] = dose: 50.0 mg/kg/injection, schedule: Q01DX005 (ip), vehicle: Klucel (hydroxypropylcellulose) (HPC)
[4] = dose: 50.0 mg/kg/injection, schedule: Q01DX005 (ip), vehicle: saline with Tween-80
[5] = dose: 100.0 mg/kg/injection, schedule: Q01DX005 (ip), vehicle: Klucel (hydroxypropylcellulose) (HPC)
[6] = dose: 100.0 mg/kg/injection, schedule: Q01DX005 (ip), vehicle: saline with Tween-80
[7] = dose: 200.0 mg/kg/injection, schedule: Q01DX005 (ip), vehicle: Klucel (hydroxypropylcellulose) (HPC)
[8] = dose: 60.0 mg/kg/injection, schedule: Q01DX005 (ip), vehicle: Klucel (hydroxypropylcellulose) (HPC)
[9] = dose: 120.0 mg/kg/injection, schedule: Q01DX005 (ip), vehicle: Klucel (hydroxypropylcellulose) (HPC)
[10] = dose: 240.0 mg/kg/injection, schedule: Q01DX005 (ip), vehicle: Klucel (hydroxypropylcellulose) (HPC)
[11] = dose: 25.0 mg/kg/injection, schedule: Q01DX009 (ip), vehicle: saline with Tween-80
[12] = dose: 50.0 mg/kg/injection, schedule: Q01DX009 (ip), vehicle: saline with Tween-80
[13] = dose: 50.0 mg/kg/injection, schedule: Q01DX009 (ip), vehicle: saline
[14] = dose: 100.0 mg/kg/injection, schedule: Q01DX009 (ip), vehicle: saline
[15] = dose: 50.0 mg/kg/injection, schedule: Q01DX009 (ip), vehicle: Klucel (hydroxypropylcellulose) (HPC)
[16] = dose: 100.0 mg/kg/injection, schedule: Q01DX009 (ip), vehicle: Klucel (hydroxypropylcellulose) (HPC)
[17] = dose: 200.0 mg/kg/injection, schedule: Q01DX009 (ip), vehicle: saline

Measured: T/C

COC(=O)c1cc([O-])c2sc(C)c(C)[n+]2n1
inactive: dose: 60.0 mg/kg/injection, schedule: Q01DX005 (ip), vehicle: saline with Tween-80 100 % of control | dose: 120.0 mg/kg/injection, schedule: Q01DX005 (ip), vehicle: saline with Tween-80 100 % of control | dose: 240.0 mg/kg/injection, schedule: Q01DX005 (ip), vehicle: saline with Tween-80 100 % of control

C=C1C2CCC3C4(C)CCCC(C)(C(=O)O)C4CCC3(C2)C1OC(=O)/C(C)=C/C (stereo unspecified)
inactive: [1] 102 % of control | [2] 96 % of control | [3] 90 % of control | [4] 99 % of control | [5] 87 % of control | [6] 95 % of control | dose: 200.0 mg/kg/injection, schedule: Q01DX005 (ip), vehicle: saline with Tween-80 95 % of control | dose: 400.0 mg/kg/injection, schedule: Q01DX005 (ip), vehicle: saline with Tween-80 95 % of control

COc1cc(NCCCCCN=C(N)NC#N)c2ncccc2c1
inactive: [3] 99 % of control | [5] 98 % of control | [7] 92 % of control

COC(=O)c1ccc(C(=S)SC)cc1
inactive: dose: 100.0 mg/kg/injection, schedule: Q04DX002 (ip), vehicle: saline 100 % of control | dose: 200.0 mg/kg/injection, schedule: Q04DX002 (ip), vehicle: saline 100 % of control | dose: 400.0 mg/kg/injection, schedule: Q04DX002 (ip), vehicle: saline 99 % of control

O=C1c2ccccc2C(=O)c2c(O)c(O)cc(O)c21
inactive: dose: 60.0 mg/kg/injection, schedule: Q01DX005 (ip), vehicle: saline 94 % of control | dose: 120.0 mg/kg/injection, schedule: Q01DX005 (ip), vehicle: saline 91 % of control | dose: 240.0 mg/kg/injection, schedule: Q01DX005 (ip), vehicle: saline 94 % of control

CCC[CH2][Sn]([CH2]CCC)([S]CCS(=O)(=O)O)[S]CCS(=O)(=O)O
inactive: [8] 100 % of control | [9] 101 % of control | [10] 99 % of control

COC(=O)C/C(=C\c1cn(C(C)=O)c2ccccc12)[N+](=O)[O-]
inactive: dose: 6.25 mg/kg/injection, schedule: Q01DX005 (ip), vehicle: Klucel (hydroxypropylcellulose) (HPC) 89 % of control | [1] 98 % of control | [2] 91 % of control

COc1ccc(C(=O)N/N=C(\C)[C@]2(O)Cc3c(O)c4c(c(O)c3[C@@H](OC3CC(N)C(O)C(C)O3)C2)C(=O)c2c(OC)cccc2C4=O)cc1 (stereo partly specified)
inactive: dose: 0.12 mg/kg/injection, schedule: Q01DX009 (ip), vehicle: water 119 % of control | dose: 6.0 mg/kg/injection, schedule: Q04DX003 (ip), vehicle: water 112 % of control | dose: 12.0 mg/kg/injection, schedule: Q04DX003 (ip), vehicle: water 121 % of control | dose: 48.0 mg/kg/injection, schedule: Q04DX003 (ip), vehicle: water 118 % of control
active: dose: 0.5 mg/kg/injection, schedule: Q01DX009 (ip), vehicle: water 151 % of control | dose: 1.0 mg/kg/injection, schedule: Q01DX009 (ip), vehicle: water 158 % of control and 164 % of control | dose: 2.0 mg/kg/injection, schedule: Q01DX009 (ip), vehicle: water 174 % of control and 190 % of control | dose: 4.0 mg/kg/injection, schedule: Q01DX009 (ip), vehicle: water 181 % of control and 211 % of control | dose: 24.0 mg/kg/injection, schedule: Q04DX003 (ip), vehicle: water 166 % of control

O=S(=O)(/C=C/c1cccnc1)/C=C/c1cccnc1
inactive: [11] 106 % of control | [12] 100 % of control

C[C@H]1C(=O)O[C@@H]2CCN3CC=C(COC(=O)[C@](C)(O)[C@@]1(C)O)[C@H]23
inactive: dose: 3.13 mg/kg/injection, schedule: Q01DX010 (ip), vehicle: saline 95 % of control | dose: 6.25 mg/kg/injection, schedule: Q01DX010 (ip), vehicle: saline 100 % of control | dose: 12.5 mg/kg/injection, schedule: Q01DX010 (ip), vehicle: saline 104 % of control | dose: 25.0 mg/kg/injection, schedule: Q01DX010 (ip), vehicle: saline 100 % of control

CCN(CC)CCNc1ccc(CO)c2oc3ccc(O)cc3c(=O)c12
active: [4] 171 % of control and 189 % of control | [6] 214 % of control and 217 % of control

Cc1ccccc1-c1nc2cc(Cl)ccc2c(=O)o1
inactive: [11] 105 % of control | [12] 110 % of control | dose: 100.0 mg/kg/injection, schedule: Q01DX009 (ip), vehicle: saline with Tween-80 110 % of control

[CH3][Ge]([CH3])[c]1ccccc1
inactive: [13] 101 % of control | [14] 95 % of control

CCN(CC)CCNc1ccc(C)c2sc3ccc(OC)cc3c(=O)c12
inactive: [11] 115 % of control | [12] 115 % of control and 90 % of control

Cc1ccc(S(=O)(=O)NC(=O)NNC(=O)C(=O)Nc2ccc(F)cc2)cc1
inactive: [3] 100 % of control | [5] 90 % of control | [7] 90 % of control

CCOC(=O)/C=C(\NC1CC(OC2C[C@](O)(C(C)=O)Cc3c(O)c4c(c(O)c32)C(=O)c2c(OC)cccc2C4=O)OC(C)C1O)C(=O)OCC (stereo partly specified)
inactive: dose: 6.25 mg/kg/injection, schedule: Q04DX003 (ip), vehicle: saline with Tween-80 106 % of control | dose: 12.5 mg/kg/injection, schedule: Q04DX003 (ip), vehicle: saline with Tween-80 113 % of control | dose: 25.0 mg/kg/injection, schedule: Q04DX003 (ip), vehicle: saline with Tween-80 105 % of control | dose: 50.0 mg/kg/injection, schedule: Q04DX003 (ip), vehicle: saline with Tween-80 124 % of control

COC1=C(C)C(=O)c2[nH]c(Cl)c(C=O)c2C1=O
inactive: dose: 100.0 mg/kg/injection, schedule: Q01DX001 (ip), vehicle: saline with Tween-80 99 % of control | dose: 200.0 mg/kg/injection, schedule: Q01DX001 (ip), vehicle: saline with Tween-80 95 % of control

O=C1/C(=C/C=C/c2ccccc2)C(=S)SN1Cc1ccco1
inactive: [15] 96 % of control | [16] 97 % of control

Cc1nn(-c2ccccc2)nc1CCl
inactive: [3] 101 % of control | [5] 99 % of control | [7] 95 % of control

Cc1ccccc1C(C)(O)c1cnc(C)n1Cc1ccccc1 (stereo unspecified)
inactive: [8] 111 % of control | [9] 96 % of control | [10] 91 % of control

CN(C)CCOc1ccc2c(c1)CCC2=O
inactive: [13] 108 % of control | [14] 118 % of control | [17] 108 % of control

CC1(C=O)CCCC2(C)[C@@H]1CCC13CC(CO)C(CC[C@H]12)C3 (stereo partly specified)
inactive: dose: 1.63 mg/kg/injection, schedule: Q01DX005 (ip), vehicle: Klucel (hydroxypropylcellulose) (HPC) 86 % of control | dose: 3.25 mg/kg/injection, schedule: Q01DX005 (ip), vehicle: Klucel (hydroxypropylcellulose) (HPC) 88 % of control

CCCCCCCCCC#CC(=O)OC
inactive: [13] 105 % of control | [14] 105 % of control | [17] 105 % of control

O=C1c2c(O)ccc(O)c2C(=O)c2c(NCCCCCO)ccc(NCCCCCO)c21
inactive: dose: 20.0 mg/kg/injection, schedule: Q01DX009 (ip), vehicle: Klucel (hydroxypropylcellulose) (HPC) 94 % of control | dose: 40.0 mg/kg/injection, schedule: Q01DX009 (ip), vehicle: Klucel (hydroxypropylcellulose) (HPC) 89 % of control | dose: 80.0 mg/kg/injection, schedule: Q01DX009 (ip), vehicle: Klucel (hydroxypropylcellulose) (HPC) 93 % of control | dose: 160.0 mg/kg/injection, schedule: Q01DX009 (ip), vehicle: Klucel (hydroxypropylcellulose) (HPC) 93 % of control | dose: 320.0 mg/kg/injection, schedule: Q01DX009 (ip), vehicle: Klucel (hydroxypropylcellulose) (HPC) 111 % of control

CC1C(=O)C(C)C(c2ccccc2)NC1c1ccccc1 (stereo unspecified)
inactive: [13] 99 % of control | [14] 98 % of control | [17] 89 % of control

COc1ccccc1N=NC(C#N)C(N)=O (stereo unspecified)
inactive: [11] 102 % of control | [12] 101 % of control

Cc1cnn(C(C(=O)c2ccccc2)c2ccccc2)c1-c1ccccc1 (stereo unspecified)
inactive: [15] 105 % of control | [16] 105 % of control | dose: 200.0 mg/kg/injection, schedule: Q01DX009 (ip), vehicle: Klucel (hydroxypropylcellulose) (HPC) 98 % of control

CC(C)C(NC(=O)CCNC(=O)OCc1ccccc1)C(=O)O (stereo unspecified)
inactive: [5] 102 % of control | [7] 100 % of control | dose: 400.0 mg/kg/injection, schedule: Q01DX005 (ip), vehicle: Klucel (hydroxypropylcellulose) (HPC) 96 % of control
